Laboratory results reported in patent US20230407365A1, “DIAGNOSTIC TOOL FOR SCREENING THE IMPACT OF PRODUCT INGREDIENTS FOR UROGENITAL MICROBIOMES THERAPIES” (priority 2022, published 2023).

Columns and labels:
[1] = tested on: L. gasseri; assay: L. gasseri in anaerobic conditions at 37° C., OD 600 nm (FIG. 20); type: cell-based
Procedure: 2010. […] Confirmation as lactobacilli was confirmed by qPCR. The treatment results are measured by OD 600 nm 1715 of one embodiment.

[2] = tested on: L. crispatus; assay: L. crispatus in anaerobic conditions at 37° C., OD 600 nm (FIG. 19); type: cell-based
Procedure: 1910. […] Confirmation as lactobacilli was confirmed by qPCR. The treatment results are measured by OD 600 nm 1715 of one embodiment.

[3] = tested on: E. coli; assay: Quantitative analysis of actives for cannabinoids, culture growth by OD 600 nm (FIG. 18); type: cell-based; conditions: aerobic conditions; compared with No treatment Ctrl
Procedure: FIGS. 17A, 17B and 18 show the results of quantitative analysis of actives for cannabinoids for Lactobacillus crispatus, Lactobacillus gasseri and E. coli. Each sample is treated with a CBD distillate, THC distillate, and De Man, Rogosa and Sharpe (MRS) agar plates as indicated on chart. Additionally, a CBD isolate of the samples is also treated.
The treatment results are measured by OD 600 nm 1715 of one embodiment.

[4] = tested on: Candida albicans; assay: CBD effects on C. albicans, normalized optical density (FIG. 16A); type: cell-based; conditions: anaerobically cultured Candida albicans
[5] = tested on: Streptococcus pneumoniae; conditions: reported; cited from earlier work
[6] = tested on: Staphylococcus aureus; conditions: reported; cited from earlier work
[7] = tested on: L. crispatus; assay: Inhibition results, OD 600 nm (FIG. 21); type: cell-based; conditions: MRS broth
Procedure: (§1) Treatments included Product R 2150, Erythromycin 2152, No trt 2154, and Ctrl 2156. […] A drop in pH was expected and observed. Follow up treatments should include a positive control using a gram-positive antibiotic, e.g erythromycin, vancomycin or tetracycline, to show inhibition of the lactobacilli strains L. gasseri 2130 and L. crispatus 2140. The treatment results are measured by OD 600 nm 1715 of one embodiment.

[8] = tested on: L. gasseri; assay: Inhibition results, OD 600 nm (FIG. 21); type: cell-based; conditions: MRS broth
Procedure: as §1

C=C(C)[C@@H]1CCC(C)=C[C@H]1c1c(O)cc(CCCCC)cc1O [CBD isolate, cannabidiol]
inhibition of growth (OD 600 nm) [1]: lack of inhibition | inhibition of growth (OD 600 nm) [2]: lack of inhibition | treatment results measured by OD 600 nm over treatment exposure times (growth inhibition) [3]: relatively similar results

C=C(C)[C@@H]1CCC(C)=C[C@H]1c1c(O)cc(CCCCC)cc1O [CBD, cannabidiol]
CBD effects on C. albicans (Normalized Optical Density over time) [4]: positive result | inhibitory levels [5]: low micromolar range | inhibitory levels [6]: low micromolar range

CC[C@H]1OC(=O)[C@H](C)[C@@H](O[C@H]2C[C@@](C)(OC)[C@@H](O)[C@H](C)O2)[C@H](C)[C@@H](O[C@@H]2O[C@H](C)C[C@H](N(C)C)[C@H]2O)[C@](C)(O)C[C@@H](C)C(=O)[C@H](C)[C@@H](O)[C@]1(C)O [Erythromycin]
inhibition of growth (OD 600 nm) [7]: no observed inhibition of growth | inhibition of growth (OD 600 nm) [8]: no observed inhibition of growth
